Reference: publication PMC9182490, “N-Glucosylation in Corynebacterium glutamicum with YdhE from Bacillus lichenformis” (Molecules, 2022)

Biological target: T1, YdhE (CO-YdhE) (Bacillus licheniformis, UniProt Q62XT4)
T1 construct: 45 kDa band on SDS-PAGE; not purified
T1 sequence (Q62XT4 1-404): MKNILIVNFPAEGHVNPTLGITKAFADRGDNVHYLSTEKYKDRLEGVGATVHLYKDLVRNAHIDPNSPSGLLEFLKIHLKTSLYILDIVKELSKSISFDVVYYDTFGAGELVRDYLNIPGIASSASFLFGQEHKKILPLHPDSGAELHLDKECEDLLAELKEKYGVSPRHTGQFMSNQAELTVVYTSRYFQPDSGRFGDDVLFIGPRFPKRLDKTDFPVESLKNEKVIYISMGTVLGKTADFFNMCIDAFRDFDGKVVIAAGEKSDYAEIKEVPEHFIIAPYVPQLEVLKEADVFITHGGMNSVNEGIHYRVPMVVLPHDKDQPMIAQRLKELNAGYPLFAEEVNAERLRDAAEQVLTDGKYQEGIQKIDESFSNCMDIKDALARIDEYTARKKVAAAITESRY
Test: whole-cell N-glucosylation, HPLC-PDA and HR-QTOF ESI/MS, product NMR
Assay type: cell-based, Corynebacterium glutamicum
Conditions: C. glutamicum harboring pSKSM-YdhE; glucose as sugar source, UDP-sugar donor made by host; 2 mM substrate, 37 °C; product is N-beta-D-glucopyranoside

**Q.** For CCCCOC(=O)c1ccc(N)cc1 [compound 2, butyl-4-aminobenzoate], which “whole-cell N-glucosylation, HPLC-PDA and HR-QTOF ESI/MS, product NMR” value is on record?
**A.** confirmed the glucosylation of butyl-4-aminobenzoate
